Source: PMC2956696, “A novel antiangiogenic peptide derived from hepatocyte growth factor inhibits neovascularization in vitro and in vivo” (Molecular Vision, 2010)
No end group written: not given here.

Tests used:
RF/6A cells [1] = assay: Cell viability with H-RN alone (MTS); type: cell-based, rhesus macaque; conditions: any concentration tested, vs culture medium group
Protocol: A cell proliferation assay was performed as described previously. A colorimetric MTS (3-(4,5-dimeth-ylthiazol-2-yl)-5-(3-carboxymethoxyphenol)-2-(4-sulphophenyl)-2H-tetrazolium) assay (CellTiter 96 AQ; Promega, Madison, WI) was used according to the manufacturer’s instructions. Briefly, cells were seeded onto a 96-well plate (4.8×10^3 cells/well). After 24 h, cells were serum-starved overnight, and then treated with 100 ng/ml VEGF and various doses of H-RN or H-FT (0, 1 μM, 10 μM, 100 μM, or 1 mM) in 100 μl of serum-free medium for an additional 24 h. In positive control group, 100 μl of serum-free medium contains 100 ng/ml VEGF and 0.25 or 2.5 mg/ml bevacizumab (Avastin®, Hoffmann-La Roche Ltd., Basel, Switzerland), and the negative control group contains 100 ng/ml VEGF and a scrambled peptide at concentrations of 1 μM, 10 μM, 100 μM, or 1 mM. […] The absorbance at 490 nm was recorded using a microplate reader (Bio-Rad, Model 680, Hercules, CA). […]
RF/6A cells were exposed for 24 h to VEGF (100 ng/ml), or to VEGF combined with various concentrations of bevacizumab, H-RN, or H-FT. […] At the highest dose of H-RN tested (1 mM), the mean absorbance value was very close to that of the control group (0.735 versus 0.673), though this inhibitory effect was not as strong as that of 2.5 mg/ml bevacizumab (0.735 versus 0.615). […]

RF/6A cells [2] = assay: VEGF-stimulated cell proliferation assay (MTS); type: cell-based, rhesus macaque; conditions: 24 h
Protocol: A cell proliferation assay was performed as described previously. A colorimetric MTS (3-(4,5-dimeth-ylthiazol-2-yl)-5-(3-carboxymethoxyphenol)-2-(4-sulphophenyl)-2H-tetrazolium) assay (CellTiter 96 AQ; Promega, Madison, WI) was used according to the manufacturer’s instructions. Briefly, cells were seeded onto a 96-well plate (4.8×10^3 cells/well). After 24 h, cells were serum-starved overnight, and then treated with 100 ng/ml VEGF and various doses of H-RN or H-FT (0, 1 μM, 10 μM, 100 μM, or 1 mM) in 100 μl of serum-free medium for an additional 24 h. In positive control group, 100 μl of serum-free medium contains 100 ng/ml VEGF and 0.25 or 2.5 mg/ml bevacizumab (Avastin®, Hoffmann-La Roche Ltd., Basel, Switzerland), and the negative control group contains 100 ng/ml VEGF and a scrambled peptide at concentrations of 1 μM, 10 μM, 100 μM, or 1 mM. After completion of the treatment, 20 μl of the 3-(4,5-dimethylthiazol-2-yl)-5-(3-carboxymethoxyphenol)-2-(4-sulphophenyl)-2H-tetrazolium (MTS) reagent were pipetted into each well and incubated for 4 h. The absorbance at 490 nm was recorded using a microplate reader (Bio-Rad, Model 680, Hercules, CA). Each group was tested at least in triplicate, and the assays were repeated a minimum of three times.

RF/6A cells [3] = assay: Endothelial cell tube formation assay on Matrigel; type: cell-based, rhesus macaque; conditions: 100 ng/ml VEGF, 6 h, peptides 100 nM-1 mM, bevacizumab both concentrations
Protocol: A tube formation assay was performed as previously described. The 96 well culture plate were coated with Matrigel™ (BD Biosciences, Bedford, MA) according to the manufacturer’s instructions. RF/6A cells (2.5×10^4 in number) were preincubated with various concentrations of bevacizumab or peptides (100 nM–1 mM) before being seeded on coated plates in a serum-free medium containing VEGF 100 ng/ml, and then incubated at 37 °C for 6 h. Tube formation was observed using an inverted phase contrast microscope (Olympus, Tokyo, Japan). Images were captured with a digital camera (Olympus). The degree of tube formation was quantified by measuring the length of tubes in three randomly chosen fields (with magnification of ×100) from each well using the Image-Pro Plus Program (version 5.1; Media Cybernetics, Inc.). Each group was tested in triplicate. Each experiment was repeated three times.

RF/6A cells [4] = assay: VEGF-driven cell migration assay (Transwell); type: cell-based, rhesus macaque; conditions: 100 ng/ml VEGF, 24 h, H-FT 1 nM to 1 µM, bevacizumab both concentrations
Protocol: A cell migration assay was performed as described previously, with modification as below. Briefly, RF/6A cells were starved overnight, trypsinized, and suspended at a final concentration of 5×10^5 cells/ml. Various concentrations of bevacizumab or peptides were preincubated with the cells for 30 min at 37 °C before seeding into the Transwell chambers (pretreated by culture medium, 10 mm diameter, 8.0 µm pore size; Corning Inc., New York, NY), the 5×10^4 cells were added to each upper chamber. VEGF (100 ng/ml) was placed into the lower chamber. The assembled cell-culture insert chamber was then incubated at 37 °C for 24 h. After removing the nonmigrating cells in the upper chambers with a cotton swab, migrated cells on the lower surface of the porous membrane were fixed, stained with Gram stain, and photographed under a light microscope (Olympus, Tokyo, Japan). Five random fields (×200) were chosen in each insert, and the cell number was quantified manually. Each experiment was repeated three times.

Question: For H-FTSNPEVRYEV-OH, which Peptide remaining after 48 h is on record?
Answer: > 90%

Question: With RNPRGEEGGPW [H-RN] as the substance, how does the “Cell viability with peptide alone (in words)” value (RF/6A cells [1]) read?
Answer: cell viability was not affected

Question: What about the Peptide remaining after 48 h of the same substance?
Answer: > 90%

Question: What does the source list for bevacizumab?
Answer: Inhibition of VEGF-induced cell proliferation (in words) (RF/6A cells [2]; 100 ng/ml VEGF, peptides 1 μM-1 mM, bevacizumab 2.5 mg/ml): strongly inhibited; Mean absorbance value (490 nm, MTS), VEGF-induced proliferation (RF/6A cells [2]; 2.5 mg/ml bevacizumab + 100 ng/ml VEGF, serum-free medium, control group 0.673): 0.615; Inhibition of VEGF-induced tube formation (in words) (RF/6A cells [3]): strongly inhibited; Inhibition of VEGF-induced cell migration (in words) (RF/6A cells [4]): effectively inhibited cell migration
